Reference: PubChem BioAssay (NCI)
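A five-concentration, 48-hour dose response in 96-well plates underlies each endpoint, interpolated linearly between surrounding concentrations. TGI: concentration producing complete growth inhibition.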

Key:
Test in all cases: DTP human tumour cell line panel, 48 h
[1] = tested on: ACHN renal
[2] = tested on: SK-MEL-28 melanoma
[3] = tested on: NCI-H460 lung
[4] = tested on: HCT-116 colon
[5] = tested on: SF-539 CNS
[6] = tested on: LXFL 529 NSCLC
[7] = tested on: HCT-15 colon
[8] = tested on: OVCAR-8 ovarian
[9] = tested on: SF-295 CNS
[10] = tested on: XF 498 CNS
[11] = tested on: A498 renal
[12] = tested on: DMS 273 small cell lung
[13] = tested on: OVCAR-5 ovarian
[14] = tested on: SR leukemia
[15] = tested on: HOP-18 NSCLC
[16] = tested on: A549 NSCLC
[17] = tested on: OVCAR-4 ovarian
[18] = tested on: SN12C renal
[19] = tested on: CCRF-CEM leukemia
[20] = tested on: SNB-78 CNS
[21] = tested on: HT29 colon
[22] = tested on: HOP-92 NSCLC
[23] = tested on: NCI-H226 lung
[24] = tested on: NCI-H23 lung
[25] = tested on: EKVX NSCLC
[26] = tested on: U251 CNS
[27] = tested on: SNB-19 CNS
[28] = tested on: SW-620 colon
[29] = tested on: RXF-631 renal
[30] = tested on: SK-MEL-2 melanoma
[31] = tested on: SF-268 CNS
[32] = tested on: KM12 colon
[33] = tested on: RPMI-8226 leukemia
[34] = tested on: TK-10 renal
[35] = tested on: HCC-2998 colon
[36] = tested on: HL-60(TB) leukemia
[37] = tested on: CAKI-1 renal
[38] = tested on: DMS 114 small cell lung
[39] = tested on: IGROV1 ovarian
[40] = tested on: MOLT-4 leukemia
[41] = tested on: SNB-75 CNS
[42] = tested on: K-562 leukemia
[43] = tested on: COLO 205 colon
[44] = tested on: UACC-257 melanoma
[45] = tested on: MALME-3M melanoma
[46] = tested on: M14 melanoma
[47] = tested on: RXF 393 renal

## O=C(Nc1ccc2[nH]c3c(-c4ccccc4)nccc3c2c1)c1ccccc1[N+](=O)[O-]
[1]
  TGI: > 100 µM
[2]
  TGI: > 100 µM
[3]
  TGI: > 100 µM
[4]
  TGI: > 100 µM
[5]
  TGI: 3.46 µM
[6]
  TGI: 47.2 µM
[7]
  TGI: 5.32 µM
[8]
  TGI: > 100 µM
[9]
  TGI: 3.7 µM
[10]
  TGI: 18.9 µM
[11]
  TGI: 9.47 µM
[12]
  TGI: 3.76 µM
[13]
  TGI: 4.63 µM
[14]
  TGI: 6.97 µM
[15]
  TGI: > 100 µM
[16]
  TGI: > 100 µM
[17]
  TGI: > 100 µM
[18]
  TGI: > 100 µM
[19]
  TGI: > 100 µM
[20]
  TGI: > 100 µM
[21]
  TGI: 4.3 µM
[22]
  TGI: 8.97 µM
[23]
  TGI: 6.2 µM
[24]
  TGI: 33.5 µM
[25]
  TGI: > 100 µM
[26]
  TGI: 16.7 µM
[27]
  TGI: > 100 µM
[28]
  TGI: 37.3 µM
[29]
  TGI: > 100 µM
[30]
  TGI: 21.4 µM
[31]
  TGI: > 100 µM
[32]
  TGI: > 100 µM
[33]
  TGI: > 100 µM
[34]
  TGI: 27.6 µM
[35]
  TGI: 11.4 µM
[36]
  TGI: 10.6 µM
[37]
  TGI: > 100 µM
[38]
  TGI: > 100 µM
[39]
  TGI: > 100 µM
[40]
  TGI: 15.3 µM
[41]
  TGI: 9.14 µM
[42]
  TGI: > 100 µM
[43]
  TGI: 23.5 µM
[44]
  TGI: 30.7 µM
[45]
  TGI: 3.64 µM
[46]
  TGI: 5.88 µM
[47]
  TGI: 3.69 µM
